In article PMC8252068, “Biochemical Investigation of the Interaction of pICln, RioK1 and COPR5 with the PRMT5–MEP50 Complex” (Chembiochem, 2021):
Where a SMILES comes first, the peptide text is derived from it. Side-chain parts run from the residue outwards. The star is where a group is joined. FITC = O=C1OC2(c3ccc(O)cc3Oc3cc(O)ccc32)c2ccc(NC(=S)*)cc21; AEEA = NCCOCCOCC(=O)O

How the values were obtained:
[1] = molecular target: T1, native PRMT5–MEP50 complex (Homo sapiens, UniProt O14744+Q9BQA1); test: Fluorescence polarisation direct binding assay, full-length PRMT5–MEP50; conditions: FP using the native PRMT5–MEP50 complex, FITC peptide 1 nM, pH 8.0, 30 min, 20-21 °C, n=3, n.b. = no binding; for Kd: read-out: K D (Table 2, peptides 1–16)
T1 construct: Full‐length PRMT5–MEP50; 6His-MBP with 3C site (N, cleaved yes); made in house; host or cells: HighFive insect cells (flashBAC baculovirus system)
Source text: (§1) All proteins were expressed at the Protein Chemistry Facility (PCF) based in the MPI Dortmund.
(§2) For expression of the proteins, all constructs were subcloned into pOPIN vectors. […]
(§3) Expression of full-length human RioK1 tagged with 6NHis-3C and co-expression of full-length human PRMT5 (N-terminal 6His-MBP with 3C) with MEP50 (N-terminal 6His-TRX with 3C), and of TIM barrel (1-292 aa) with MEP50 (both N-terminally tagged with His-TRX with 3C cleavage site) was done using the Flash Bac Expression System (Oxford Expression Technologies, UK) with HighFive insect cells in Gibco Sf-900 III SFM medium. The cells were harvested by centrifugation and lysed.
(§4) All proteins were purified at the PCF (MPI Dortmund).
(§5) Protein purification was performed on HisTrap FF crude 5 ml Ni-based column, followed by the on-column treatment with 6His-tagged HRV-3C PreScission protease, or in case of the SUMO-tagged TIM barrel, with 6His-tagged SUMO protease. The cleaved proteins were then further purified using gel filtration chromatography with the HiLoad 26/60 Superdex 75 or 200 prep grade column. PRMT5 -MEP50, TIM-MEP50 and TIM barrel were stored in a buffer containing 50 mM HEPES, 250 mM NaCl, 1 mM TCEP with the pH adjusted to 8.0, whereas, pICln was stored in a buffer of 20 mM phosphate, 100 mM NaCl, 5 mM TCEP and pH of 7.5, whereas RioK1 was stored in a buffer of 50 mM Tris, 200 mM NaCl, 10% glycerol, 1 […]
(§6) Protein Labelling with Alexa 488
(§7) To a protein solution (ca. 1 mg/ml) in 0.2 M bicarbonate buffer with 1 mM TCEP at pH 8.3, was added 10 mM Alexa 488 NHS-ester in DMSO (8 equiv), and the mixture was kept on ice, in darkness, overnight. The protein was washed eight times with buffer (50 mM HEPES, 250 mM NaCl, 1 mM TCEP, 8.0 pH) using an Amicon® Ultra-0.5 mL spin filter. Protein concentration was then determined using the NanoDrop […]
Fluorescence Polarisation (FP)
The assay was performed in a buffer of 50 mM HEPES, 250 mM NaCl, 1 mM TCEP, 0.01% (v/v) Tween 20, pH 8.0, in black, 384 well-plates, with a total volume of 10 μl per well. The analysed, FITC labelled peptides, or Alexa488-labelled pICln or RioK1, were tested at a final concentration of 1 nM, and the appropriate unlabelled protein was titrated as two-fold dilution series. The plates were incubated at 20-21 °C for 30 min in case of FITC -labelled peptides or 1-2h in case of the Alexa488-labelled protein, and analysed on a plate reader using 485 nm excitation and 535 nm emission wavelength. The assay was performed in […]

[2] = molecular target: T1, native PRMT5–MEP50 complex; test: Competitive fluorescence polarisation binding assay with compound 11 as tracer; conditions: competitive FP; tracer compound 11 at 1 nM, PRMT5-MEP50 600 nM, unlabelled peptide titrated two-fold; pH 8.0; 30 min, 20-21 °C; n=3
Source text: as §1, §2, §3, §4, §5, §6, §7
Competitive Binding Assay
The competitive binding assay was performed in a buffer of 50 mM HEPES, 250 mM NaCl, 1 mM TCEP, 0.01% (v/v) Tween 20, 8.0 pH, in black, 384 well-plates, with a total volume of 10 μl per well. The FITC labelled peptides were added at the final concentration of 1 nM, were mixed with PRMT5-MEP50 (at the final concentration of 600 nM), and the appropriate non-labelled peptide was titrated as two-fold dilution series. The plates were incubated at 20-21 °C for 30 min and analysed on a plate reader using 485 nm excitation and 535 nm emission wavelength. The experiment was performed in triplicates.

T1 sequence (O14744 whole entry): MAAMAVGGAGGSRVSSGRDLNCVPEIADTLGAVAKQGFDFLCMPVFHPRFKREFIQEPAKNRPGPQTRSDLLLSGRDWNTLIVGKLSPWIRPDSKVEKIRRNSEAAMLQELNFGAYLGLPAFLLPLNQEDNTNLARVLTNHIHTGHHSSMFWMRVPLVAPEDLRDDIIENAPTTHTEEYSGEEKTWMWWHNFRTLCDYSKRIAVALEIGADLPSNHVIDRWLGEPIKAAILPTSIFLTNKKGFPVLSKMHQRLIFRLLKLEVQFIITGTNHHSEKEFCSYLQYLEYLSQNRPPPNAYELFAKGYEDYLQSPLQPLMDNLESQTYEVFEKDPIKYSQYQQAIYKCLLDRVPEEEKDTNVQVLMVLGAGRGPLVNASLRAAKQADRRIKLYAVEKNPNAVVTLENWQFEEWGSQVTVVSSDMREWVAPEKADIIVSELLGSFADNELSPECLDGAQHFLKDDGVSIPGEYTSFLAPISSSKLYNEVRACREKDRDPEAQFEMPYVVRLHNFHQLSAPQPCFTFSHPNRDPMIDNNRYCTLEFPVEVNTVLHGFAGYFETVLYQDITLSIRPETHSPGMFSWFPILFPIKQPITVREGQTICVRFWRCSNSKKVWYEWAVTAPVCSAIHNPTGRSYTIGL
T1 sequence (Q9BQA1 whole entry partner): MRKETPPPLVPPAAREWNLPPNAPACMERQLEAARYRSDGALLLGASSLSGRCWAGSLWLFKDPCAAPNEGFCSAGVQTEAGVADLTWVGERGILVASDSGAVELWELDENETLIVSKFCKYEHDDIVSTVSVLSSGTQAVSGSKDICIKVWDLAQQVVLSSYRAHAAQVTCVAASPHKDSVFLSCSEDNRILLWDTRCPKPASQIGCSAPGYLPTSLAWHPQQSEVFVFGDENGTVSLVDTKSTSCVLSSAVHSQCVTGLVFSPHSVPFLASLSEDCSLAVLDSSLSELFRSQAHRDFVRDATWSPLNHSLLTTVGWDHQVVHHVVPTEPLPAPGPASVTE

Compound | IC50 [2] | Kd [1] | also measured
Fitc‐O2Oc‐TPTVAGQF‐NH2 [compound 14, C-terminally truncated pICln derived Fitc-labelled peptide] |  |  | K D (Table 2, peptides 1–16) [1]: n.b.
Ac-TPTVAGQFEDAD-NH2 [compound 24] | 14.6 ± 0.9 µM |  | 
CSCC[C@H](NC(=O)[C@H](CC(C)C)NC(=O)[C@H](CC(C)C)NC(=O)COCCOCCNC(=S)Nc1ccc2c(c1)C(=O)OC21c2ccc(O)cc2Oc2cc(O)ccc21)C(=O)N[C@@H](CO)C(=O)N[C@@H](CCCNC(=N)N)C(=O)N[C@H](C(=O)N[C@H](C(=O)N1CCC[C@H]1C(=O)NCC(=O)N[C@@H](CCC(N)=O)C(=O)N[C@@H](Cc1ccccc1)C(=O)N[C@@H](CC(=O)O)C(=O)N[C@@H](CC(=O)O)C(=O)N[C@@H](C)C(=O)N[C@@H](CC(=O)O)C(N)=O)C(C)C)C(C)C [compound 12] ({FITC-AEEA}-LLMSRVVPGQFDDAD-NH2) |  | 0.192 ± 0.026 µM | 
Ac-SRVVPGQFDDADSSD-NH2 [compound 23] | 1.5 ± 0.4 µM |  | 
Ac-MVFETGQFDDAED-NH2 [compound 25] | 3.4 ± 0.2 µM |  | 
CC(C)[C@H](NC(=O)[C@H](CCCNC(=N)N)NC(=O)[C@H](CO)NC(=O)COCCOCCNC(=S)Nc1ccc2c(c1)C(=O)OC21c2ccc(O)cc2Oc2cc(O)ccc21)C(=O)N[C@H](C(=O)N1CCC[C@H]1C(=O)NCC(=O)N[C@@H](CCC(N)=O)C(=O)N[C@@H](Cc1ccccc1)C(=O)N[C@@H](CC(=O)O)C(=O)N[C@@H](CC(=O)O)C(N)=O)C(C)C [compound 5] ({FITC-AEEA}-SRVVPGQFDD-NH2) |  | > 5 µM | 
CC(=O)N[C@H](C(=O)N1CCC[C@H]1C(=O)NCC(=O)N[C@@H](CCC(N)=O)C(=O)N[C@@H](Cc1ccccc1)C(=O)N[C@@H](CC(=O)O)C(=O)N[C@@H](CC(=O)O)C(=O)N[C@@H](C)C(=O)N[C@@H](CC(=O)O)C(=O)N[C@@H](CCCCNC(=O)COCCOCCNC(=S)Nc1ccc2c(c1)C(=O)OC21c2ccc(O)cc2Oc2cc(O)ccc21)C(N)=O)C(C)C [compound 8] (Ac-VPGQFDDADK([AEEA-FITC])-NH2) |  | 0.208 ± 0.074 µM | 
CC(C)[C@H](NC(=O)COCCOCCNC(=S)Nc1ccc2c(c1)C(=O)OC21c2ccc(O)cc2Oc2cc(O)ccc21)C(=O)N[C@@H](CC(=O)O)C(=O)N[C@H](C(=O)N[C@H](C(=O)N1CCC[C@H]1C(=O)N[C@H](C(=O)N[C@H](C(=O)N[C@@H](C)C(=O)NCC(=O)N[C@@H](CCC(N)=O)C(=O)N[C@@H](Cc1ccccc1)C(=O)N[C@@H](CCC(=O)O)C(=O)N[C@@H](CC(=O)O)C(=O)N[C@@H](C)C(=O)N[C@@H](CC(=O)O)C(N)=O)C(C)C)[C@@H](C)O)[C@@H](C)O)[C@@H](C)O [compound 16] ({FITC-AEEA}-VDTTPTVAGQFEDAD-NH2) |  | 2.38 ± 0.817 µM | 
CC(C)[C@H](NC(=O)[C@H](CCCNC(=N)N)NC(=O)[C@H](CO)NC(=O)COCCOCCNC(=S)Nc1ccc2c(c1)C(=O)OC21c2ccc(O)cc2Oc2cc(O)ccc21)C(=O)N[C@H](C(=O)N1CCC[C@H]1C(=O)NCC(=O)N[C@@H](CCC(N)=O)C(=O)N[C@@H](Cc1ccccc1)C(=O)N[C@@H](CC(=O)O)C(=O)N[C@@H](CC(=O)O)C(=O)N[C@@H](C)C(=O)N[C@@H](CC(=O)O)C(=O)N[C@@H](CO)C(=O)N[C@@H](CO)C(=O)N[C@@H](CC(=O)O)C(N)=O)C(C)C [compound 11] ({FITC-AEEA}-SRVVPGQFDDADSSD-NH2) |  | 0.295 ± 0.011 µM | 
CC(=O)N[C@@H](CO)C(=O)N[C@@H](CCCNC(=N)N)C(=O)N[C@H](C(=O)N[C@H](C(=O)N1CCC[C@H]1C(=O)NCC(=O)N[C@@H](CCC(N)=O)C(=O)N[C@@H](Cc1ccccc1)C(=O)N[C@@H](CC(=O)O)C(=O)N[C@@H](CC(=O)O)C(=O)N[C@@H](C)C(=O)N[C@@H](CC(=O)O)C(=O)N[C@@H](CCCCNC(=O)COCCOCCNC(=S)Nc1ccc2c(c1)C(=O)OC21c2ccc(O)cc2Oc2cc(O)ccc21)C(N)=O)C(C)C)C(C)C [compound 7] (Ac-SRVVPGQFDDADK([AEEA-FITC])-NH2) |  | 0.716 ± 0.036 µM | 
CC(C)[C@H](NC(=O)[C@H](CC(=O)O)NC(=O)[C@H](C)NC(=O)[C@H](CC(=O)O)NC(=O)[C@H](CCC(=O)O)NC(=O)[C@H](Cc1ccccc1)NC(=O)[C@H](CCC(N)=O)NC(=O)CNC(=O)[C@H](C)NC(=O)[C@@H](NC(=O)[C@@H](NC(=O)[C@@H]1CCCN1C(=O)[C@@H](NC(=O)COCCOCCNC(=S)Nc1ccc2c(c1)C(=O)OC21c2ccc(O)cc2Oc2cc(O)ccc21)[C@@H](C)O)[C@@H](C)O)C(C)C)C(=O)N[C@@H](CC(=O)O)C(=O)N[C@@H](Cc1c[nH]cn1)C(N)=O [compound 15] ({FITC-AEEA}-TPTVAGQFEDADVDH-NH2) |  | 0.52 ± 0.04 µM | 
CSCC[C@H](NC(=O)[C@H](CC(C)C)NC(=O)[C@H](CC(C)C)NC(=O)COCCOCCNC(=S)Nc1ccc2c(c1)C(=O)OC21c2ccc(O)cc2Oc2cc(O)ccc21)C(=O)N[C@@H](CO)C(=O)N[C@@H](CCCNC(=N)N)C(=O)N[C@H](C(=O)N[C@H](C(=O)N1CCC[C@H]1C(=O)NCC(=O)N[C@@H](CCC(N)=O)C(=O)N[C@@H](Cc1ccccc1)C(=O)N[C@@H](CC(=O)O)C(=O)N[C@@H](CC(=O)O)C(=O)N[C@@H](C)C(=O)N[C@@H](CC(=O)O)C(=O)N[C@@H](CO)C(=O)N[C@@H](CO)C(=O)N[C@@H](CC(=O)O)C(N)=O)C(C)C)C(C)C [compound 13] ({FITC-AEEA}-LLMSRVVPGQFDDADSSD-NH2) |  | 0.279 ± 0.041 µM | 
CC(=O)NCC(=O)N[C@@H](CCC(N)=O)C(=O)N[C@@H](Cc1ccccc1)C(=O)N[C@@H](CC(=O)O)C(=O)N[C@@H](CC(=O)O)C(=O)N[C@@H](C)C(=O)N[C@@H](CC(=O)O)C(=O)N[C@@H](CCCCNC(=O)COCCOCCNC(=S)Nc1ccc2c(c1)C(=O)OC21c2ccc(O)cc2Oc2cc(O)ccc21)C(N)=O [compound 9] (Ac-GQFDDADK([AEEA-FITC])-NH2) |  | > 5 µM | 
Ac‐FDDADK(O2Oc‐Fitc)‐NH2 [compound 10, N-terminally truncated, C-terminally labelled RioK1 derived peptide] |  |  | K D (Table 2, peptides 1–16) [1]: n.b.
Fitc‐O2Oc‐SRVVPGQF‐NH2 [compound 6, C-terminally truncated RioK1 derived Fitc-labelled peptide] |  |  | K D (Table 2, peptides 1–16) [1]: n.b.
Ac-SRVVPGQFDDAD-NH2 [compound 26] | 6 ± 0.7 µM |  | 

Further lines, with some results ahead:

IC50 [2] | Kd [1] | Compound | also measured
0.9 ± 0.2 µM |  | Ac-ARVVPGQFDDAD-NH2 [compound 37] | 
> 300 µM |  | Ac-SRVVPGQADDAD-NH2 [compound 30] | 
4.8 ± 0.7 µM |  | Ac-SRAVPGQFDDAD-NH2 [compound 35] | 
6.4 ± 0.3 µM |  | Ac-SRVVPGQFADAD-NH2 [compound 29] | 
9.9 ± 2.2 µM |  | Ac-SRVVAGQFDDAD-NH2 [compound 33] | 
14 ± 3.4 µM |  | Ac-SRVAPGQFDDAD-NH2 [compound 34] | 
97 ± 17 µM |  | Ac-SRVVPGQFDAAD-NH2 [compound 28] | 
> 300 µM |  | Ac-SRVVPGAFDDAD-NH2 [compound 31] | 
2.8 ± 0.5 µM |  | Ac-SAVVPGQFDDAD-NH2 [compound 36] | 
39 ± 8.5 µM |  | Ac-SRVVPAQFDDAD-NH2 [compound 32] | 
6.2 ± 2.2 µM |  | Ac-SRVVPGQFDDAA-NH2 [compound 27] | 
